Experiments:
[1] = Pharmacokinetics following single intravenous and oral gavage dosing (AUC0-24h); format: in vivo; conditions: mouse, plasma; single oral dose 30 mg/Kg, male CD-1 mice
Procedure: Compounds disclosed herein were studied for animal tolerability and pharmacokinetics following single intravenous (iv) and oral gavage (po) dosing to male CD-1 mice. For each compound in each dosing route, 3 mice were used with iv dosing volume of 5 mL/kg and po dosing volume of 10 mL/kg. The compounds were formulated in 10% DMSO, 30% PEG400, 60% aqueous solution containing 20% 2-hydroxypropyl-β-cyclodextrin. Blood sampling time points for iv dosing were 0.083, 0.25, 0.5, 1, 2, 4, 8 and 24 h. The sampling time points for po dosing were 0.25, 0.5, 1, 2, 4, 6, 8 and 24 h. Mice activities were monitored and recorded immediately following the dosing. The prepared plasma samples were analyzed using LC/MS/MS on AB Sciex Triple Quad 5500+ system. The PK parameters were determined by non-compartmental analysis using WinNonlin (Version 8.0).

[2] = target: KRAS G12V (Homo sapiens (Human), UniProt P01116, G12V); test: KRAS G12V degradation in SW620 cells (Western blot, DC50); format: cell-based; conditions: 24 hours
Procedure, shortened: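 KRAS levels were quantified by fluorescent Western blot as percent of the DMSO control after 24 h of compound exposure at 37° C in homozygous KRAS G12V SW620 cells. A four-parameter variable-slope fit of the dose-response gave the half-maximal degradation concentration.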

[3] = tested on: SW620 cells; test: 3D cell growth inhibition of SW620 cells carrying endogenous KRAS G12V mutation (CellTiter-Glo 3D, GI50); format: cell-based; conditions: Homo sapiens, SW-620, 144 h; SW620 cells, 6 days; read-out: SW620 3D cell growth GI50
Procedure, shortened: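 […], compound exposure lasted 6 days at 37° C, added the day after plating from DMSO stocks over a concentration range. Cells: SW620, KRAS G12V, 3D culture.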

[4] = target: KRAS-G12V/RAF1 (Homo sapiens (Human), UniProt P01116, G12V); test: KRAS/RAF1 binding inhibition assay (AlphaScreen)
Procedure, shortened: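 IC50 comes from variable-slope nonlinear fits of % inhibition (relative to DMSO) against inhibitor concentration. The AlphaScreen signal tracks the interaction of GppNHp-bound KRAS G12V with the RAF1 RBD after 60 min at 4° C with compound in 2% DMSO final.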

Chain of KRAS G12V (P01116-2 other isoform, or with tags, fused parts or gaps G12V): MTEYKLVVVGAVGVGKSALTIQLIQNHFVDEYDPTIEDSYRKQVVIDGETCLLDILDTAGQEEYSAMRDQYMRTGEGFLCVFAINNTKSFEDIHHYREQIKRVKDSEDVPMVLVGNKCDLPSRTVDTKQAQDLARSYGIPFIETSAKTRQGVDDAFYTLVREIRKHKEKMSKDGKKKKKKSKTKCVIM
Chain of KRAS-G12V/RAF1 (P01116-2 other isoform, or with tags, fused parts or gaps G12V): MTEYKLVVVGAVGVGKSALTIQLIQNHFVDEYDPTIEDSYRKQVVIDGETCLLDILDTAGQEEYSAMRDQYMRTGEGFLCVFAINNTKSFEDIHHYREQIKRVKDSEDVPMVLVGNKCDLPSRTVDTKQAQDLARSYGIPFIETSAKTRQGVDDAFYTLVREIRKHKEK

Row | Compound | AUC(0-t) [1] [ng·h/mL] | DC50 [2] [nM] | GI50 [3] [nM] | IC50 [4] [nM]
1 | CCc1c(F)ccc2cc(O)cc(-c3ncc4c(N5CCC[C@@](C)(O)C5)nc(OCC5(CN6CCC(F)(CN7CCN(c8cccc9c8n(C)c(=O)n9C8CCC(=O)NC8=O)CC7)CC6)CC5)nc4c3F)c12 (stereo partly drawn) [Compound 65, 3-(4-(4-((1-((1-(((7-(8-ethyl-7-fluoro-3-hydroxynaphthalen-1-yl)-8-fluoro-4-((R)-3-hydroxy-3-methylpiperidin-1-yl)pyrido[4,3-d]pyrimidin-2-yl)oxy)methyl)cyclopropyl)methyl)-4-fluoropiperidin-4-yl)methyl)piperazin-1-yl)-3-methyl-2-oxo-2,3-dihydro-1H-benzo[d]imidazol-1-yl)piperidine-2,6-dione] | 10700 | – | – | –
2 | CCc1c(F)ccc2cc(O)cc(-c3ncc4c(N5CCC[C@@](C)(O)C5)nc(OCC5(CN6CCC(CN7CCN(c8ccc9c(c8)CN([C@H]8CCC(=O)NC8=O)C9=O)CC7)CC6)CC5)nc4c3F)c12 [Compound 1, (S)-3-(5-(4-((1-((1-(((7-(8-ethyl-7-fluoro-3-hydroxynaphthalen-1-yl)-8-fluoro-4-((R)-3-hydroxy-3-methylpiperidin-1-yl)pyrido[4,3-d]pyrimidin-2-yl)oxy)methyl)cyclopropyl)methyl)piperidin-4-yl)methyl)piperazin-1-yl)-1-oxoisoindolin-2-yl)piperidine-2,6-dione] | 220 | – | – | –
3 | CCc1c(F)ccc2cc(O)cc(-c3ncc4c(N5CCCC6(CCO6)C5)nc(OCC5(CN6CCC(CN7CCC(N8CCN(c9ccc%10c(c9)CN([C@H]9CCC(=O)NC9=O)C%10=O)CC8)CC7)CC6)CC5)nc4c3F)c12 (stereo partly drawn) [Compound 38, (3S)-3-(5-(4-(1-((1-((1-(((7-(8-ethyl-7-fluoro-3-hydroxynaphthalen-1-yl)-8-fluoro-4-(1-oxa-6-azaspiro[3.5]nonan-6-yl)pyrido[4,3-d]pyrimidin-2-yl)oxy)methyl)cyclopropyl)methyl)piperidin-4-yl)methyl)piperidin-4-yl)piperazin-1-yl)-1-oxoisoindolin-2-yl)piperidine-2,6-dione] | 170 | 1 to 10 | < 10 | –
4 | CCc1c(F)ccc2cc(O)cc(-c3ncc4c(N5CCC[C@@](C)(O)C5)nc(OCC5(CN6CCC(F)(CN7CCN(c8ccc9c(C%10CCC(=O)NC%10=O)nn(C)c9c8)CC7)CC6)CC5)nc4c3F)c12 (stereo partly drawn) [Compound 66, 3-(6-(4-((1-((1-(((7-(8-ethyl-7-fluoro-3-hydroxynaphthalen-1-yl)-8-fluoro-4-((R)-3-hydroxy-3-methylpiperidin-1-yl)pyrido[4,3-d]pyrimidin-2-yl)oxy)methyl)cyclopropyl)methyl)-4-fluoropiperidin-4-yl)methyl)piperazin-1-yl)-1-methyl-1H-indazol-3-yl)piperidine-2,6-dione] | 7420 | – | – | –
5 | CCc1c(F)ccc2cc(O)cc(-c3ncc4c(N5CCC[C@@](C)(O)C5)nc(OCC5(CN6CCC(F)(CN7CCN(c8ccc(C9CCC(=O)NC9=O)c(F)c8)CC7)CC6)CC5)nc4c3F)c12 (stereo partly drawn) [Compound 84, 3-(4-(4-((1-((1-(((7-(8-ethyl-7-fluoro-3-hydroxynaphthalen-1-yl)-8-fluoro-4-((R)-3-hydroxy-3-methylpiperidin-1-yl)pyrido[4,3-d]pyrimidin-2-yl)oxy)methyl)cyclopropyl)methyl)-4-fluoropiperidin-4-yl)methyl)piperazin-1-yl)-2-fluorophenyl)piperidine-2,6-dione] | 11900 | – | – | –
6 | CCc1c(F)ccc2cc(O)cc(-c3ncc4c(N5CCC[C@@](C)(O)C5)nc(OCC5(CN6CC(N7CCC(N8CCN(c9ccc%10c(c9)CN([C@H]9CCC(=O)NC9=O)C%10=O)CC8)CC7)C6)CC5)nc4c3F)c12 [Compound 139, (S)-3-(5-(4-(1-(1-((1-(((7-(8-ethyl-7-fluoro-3-hydroxynaphthalen-1-yl)-8-fluoro-4-((R)-3-hydroxy-3-methylpiperidin-1-yl)pyrido[4,3-d]pyrimidin-2-yl)oxy)methyl)cyclopropyl)methyl)azetidin-3-yl)piperidin-4-yl)piperazin-1-yl)-1-oxoisoindolin-2-yl)piperidine-2,6-dione] | – | < 1 | < 10 | < 20
7 | CCc1c(F)ccc2cc(O)cc(-c3ncc4c(N5CCC[C@@](C)(O)C5)nc(OCC5(CN6CC7(CCC(F)(CN8CCN(c9ccc(C(=O)N[C@H]%10CCC(=O)NC%10=O)c(F)c9)CC8)CC7)C6)CC5)nc4c3F)c12 [Compound 183, N-((S)-2,6-dioxopiperidin-3-yl)-4-(4-((2-((1-(((7-(8-ethyl-7-fluoro-3-hydroxynaphthalen-1-yl)-8-fluoro-4-((R)-3-hydroxy-3-methylpiperidin-1-yl)pyrido[4,3-d]pyrimidin-2-yl)oxy)methyl)cyclopropyl)methyl)-7-fluoro-2-azaspiro[3.5]nonan-7-yl)methyl)piperazin-1-yl)-2-fluorobenzamide] | – | > 100 | 10 to 100 | > 200
8 | CCc1cccc2cc(O)cc(-c3ncc4c(N5CCC[C@@](C)(O)C5)nc(OCC5(CN6CCC(CN7CCN(c8ccc9c(c8)CN([C@H]8CCC(=O)NC8=O)C9=O)CC7)CC6)CC5)nc4c3F)c12 [Compound 6, (S)-3-(5-(4-((1-((1-(((7-(8-ethyl-3-hydroxynaphthalen-1-yl)-8-fluoro-4-((R)-3-hydroxy-3-methylpiperidin-1-yl)pyrido[4,3-d]pyrimidin-2-yl)oxy)methyl)cyclopropyl)methyl)piperidin-4-yl)methyl)piperazin-1-yl)-1-oxoisoindolin-2-yl)piperidine-2,6-dione] | – | < 1 | < 10 | 20 to 200
9 | CCc1c(F)ccc2cc(O)cc(-c3ncc4c(NCC5(N(C)C)CCC5)nc(OCC5(CN6CCC7(CC6)CC(CN6CCN(c8ccc9c(c8)CN([C@H]8CCC(=O)NC8=O)C9=O)CC6)C7)CC5)nc4c3F)c12 [Compound 3, (S)-3-(5-(4-((7-((1-(((4-(((1-(dimethylamino)cyclobutyl)methyl)amino)-7-(8-ethyl-7-fluoro-3-hydroxynaphthalen-1-yl)-8-fluoropyrido[4,3-d]pyrimidin-2-yl)oxy)methyl)cyclopropyl)methyl)-7-azaspiro[3.5]nonan-2-yl)methyl)piperazin-1-yl)-1-oxoisoindolin-2-yl)piperidine-2,6-dione] | – | > 100 | > 100 | > 200
10 | CCc1c(F)ccc2cc(O)cc(-c3ncc4c(N5CCCn6nc(C(=O)N(C)C)c(Cl)c6C5)nc(OCC5(CN6CCC(CN7CCN(c8ccc9c(c8)CN([C@H]8CCC(=O)NC8=O)C9=O)CC7)CC6)CC5)nc4c3F)c12 [Compound 108, (S)-3-chloro-5-(2-((1-((4-((4-(2-(2,6-dioxopiperidin-3-yl)-1-oxoisoindolin-5-yl)piperazin-1-yl)methyl)piperidin-1-yl)methyl)cyclopropyl)methoxy)-7-(8-ethyl-7-fluoro-3-hydroxynaphthalen-1-yl)-8-fluoropyrido[4,3-d]pyrimidin-4-yl)-N,N-dimethyl-5,6,7,8-tetrahydro-4H-pyrazolo[1,5-a][1,4]diazepine-2-carboxamide] | – | 1 to 10 | < 10 | > 200
11 | CCc1c(F)ccc2cc(O)cc(-c3ncc4c(N5CCC[C@@](C)(O)C5)nc(OCC5(CN6CC7(CCN(C8CCN(c9ccc%10c(c9)CN(C9CCC(=O)NC9=O)C%10=O)CC8)CC7)C6)CC5)nc4c3F)c12 (stereo partly drawn) [Compound 166, 3-(5-(4-(2-((1-(((7-(8-ethyl-7-fluoro-3-hydroxynaphthalen-1-yl)-8-fluoro-4-((R)-3-hydroxy-3-methylpiperidin-1-yl)pyrido[4,3-d]pyrimidin-2-yl)oxy)methyl)cyclopropyl)methyl)-2,7-diazaspiro[3.5]nonan-7-yl)piperidin-1-yl)-1-oxoisoindolin-2-yl)piperidine-2,6-dione] | – | 1 to 10 | > 100 | < 20
12 | CCc1c(F)ccc2cc(O)cc(-c3ncc4c(N5CCCC(C)(O)C5)nc(OCC5(CN6CCC7(CC6)CCC(C)(N6CCN(c8ccc9c(c8)CN(C8CCC(=O)NC8=O)C9=O)CC6)CC7)CC5)nc4c3F)c12 (stereo in doubt) [Compound 167, 3-[5-[4-[3-[[1-[[7-(8-ethyl-7-fluoro-3-hydroxy-1-naphthyl)-8-fluoro-4-[(3R)-3-hydroxy-3-methyl-1-piperidyl]pyrido[4,3-d]pyrimidin-2-yl]oxymethyl]cyclopropyl]methyl]-9-methyl-3-azaspiro[5.5]undecan-9-yl]piperazin-1-yl]-1-oxo-isoindolin-2-yl]piperidine-2,6-dione] | – | 1 to 10 | < 10 | < 20

— patent publication US20250092039A1, “GLUTARIMIDE-CONTAINING PAN-KRAS-MUTANT DEGRADER COMPOUNDS AND USES THEREOF” (Tiger Biotherapeutics Inc., priority 2022, published 2025)
